Assay results: US7820876B2 (priority 2000, dated 2010)
Entries after “also recorded” stand apart in the source; their conditions may differ.

Legend:
[1] = test system: nicotinic receptors in brain; assay type: binding, mouse
[2] = test system: nicotinic acetylcholine receptors (nAChR) of striatal synaptosomes; assay type: biochemical, mouse
[3] = test system: cFos expression; settings: mouse, in vivo
[4] = test system: nAChRs containing the α6 subunit (brain sections); assay type: binding, mouse
[5] = test system: nicotinic receptors of striatum membrane preparations; assay type: binding, mouse

Compound: O=c1cccc2n1C[C@@H]1CNC[C@H]2C1 [cytisine]
- number of sites with high affinity for the ligand [1]: reduction; also recorded: no other difference could be detected

Compound: α-bungarotoxin
- ligand bond (distribution of binding sites) in mutants versus Wt [1]: not modified

Compound: CN1CCCC1c1cccnc1 (stereo not drawn) [nicotine]
- change in the affinity of the dopamine release response to nicotine (dose-response curve) [2]: loss of affinity of an order of magnitude; also recorded: drop of one order of magnitude
- dopamine release peak induced by nicotine [2]: 50%
- effect of nicotine on dopamine release [2]: completely absent
- increase in dopamine release over the basal level [2]: about 100%
- number of sites with high affinity for the ligand [1]: reduction; also recorded: no other difference could be detected
- activation of cFos expression in response to nicotine [3]: absence of activation

Compound: α-Conotoxin MII [αCtxMII]
- DA release peak induced by nicotine above the basal level in presence of αCtxMII [2]: 50%
- binding sites on brain sections [4]: presence of binding sites in three major anatomical systems
- high affinity binding sites for the toxin [4]: complete disappearance
- sites sensitive to αCtxMII as share of the total number of epibatidine sites [5]: 20%
- sites with high and low affinity for αCtxMII [5]: total disappearance

Compound: Clc1ccc(C2CC3CCC2N3)cn1 (stereo not drawn) [epibatidine]
- number of sites with high affinity for the ligand [1]: reduction; also recorded: no other difference could be detected
- total number of epibatidine sites [5]: could not show a reduction
